Experimental data published in patent US9175282B2, “Cellobiose 2-epimerase, its preparation and uses” (HAYASHIBARA CO., LTD., priority 2009, dated 2015).

Columns and labels:
[1] = tested on: recombinant cellobiose 2-epimerase; assay: Substrate specificity of cellobiose 2-epimerase by TLC; assay type: biochemical, Caldicellulosiruptor saccharolyticus ATCC43494; design: key to Action: −: No product is detected; ±: Some products are slightly detected; +: Some products are detected; ++: Some products are clearly detected; details: for Action: 2% (w/w) substrate, MOPS buffer pH 8.0, 500 units/g-substrate, 60° C., 24 hours, product spot on TLC; for Action of the enzyme on the saccharide: summary of Table 3
Description: Substrate specificity of the enzyme was investigated by allowing the purified preparation of the recombinant cellobiose 2-epimerase, obtained by the method of Experiment 4-4, to act on various saccharides. Substrate solutions were prepared by dissolving D-glucose, D-xylose, D-allose, D-ribose, D-galactose, D-fructose, D-mannose, D-psicose, D-tagatose, L-sorbose, L-rhamnose, L-ribose, trehalose, kojibiose, nigerose, isomaltose, neotrehalose, gentiobiose, lactose, sucrose, maltulose, palatinose, maltose, maltotriose, maltotetraose, maltopentaose, maltohexaose, maltoheptaose, cellobiose, cellotriose, cellotetraose, selaginose, isomaltosyl-glucoside, isomaltotriose, panose, isopanose, erlose, maltitol, maltotriitol, methyl-α-glucoside, methyl-β-glucoside, D-glucosamine, D-galactosamine, D-glucuronic acid, N-acetyl-glucosamine, or N-acetyl-galactosamine into MOPS buffer (pH 8.0) to give a final concentration of 2% (w/w) of saccharide and 40 mM buffer.
Then, each of the resulting substrate solutions was further admixed with 500 units/g-substrate, on a dry solid basis, of the purified preparation of recombinant cellobiose 2-epimerase, obtained by the method in Experiment 4-4, and followed by the enzyme reaction at 60° C. for 24 hours. After stopping the reaction by heating the reaction mixture at 100° C. for 10 minutes, each reaction mixture was subjected to TLC analysis under the conditions in Experiment 1-2 to examine the saccharides in each mixture before and after the reaction. The substrate specificity of the enzyme was judged by investigating whether the spot of the reaction product except for the substrate is detected in the TLC chromatogram or not, and the degree of the strength of the visualized spot.

[2] = tested on: recombinant cellobiose 2-epimerase; assay: Formation of isomerized saccharides from various saccharides, effect of the amount of enzyme; assay type: biochemical, Caldicellulosiruptor saccharolyticus ATCC43494; details: for Content of isomerized saccharide in the reaction mixture (%): Epilactose / Content of isomerized saccharide in the reaction mixture (%): Lactulose: GC analysis; for Action of the enzyme on the substrate: summary of Table 5
Description: Each of them was dissolved into 20 mM acetate buffer (pH 6.0), admixed with the purified preparation of the recombinant cellobiose 2-epimerase, obtained by the method in Experiment 4-4, and followed the enzyme reaction under the conditions of 10% (w/v) substrate concentration, 60° C. for 72 hours. The amount of enzyme was set to 130 or 500 units/g-substrate when monosaccharide was used as the substrate, and to 1 or 130 units/g-substrate when disaccharide or trisaccharide was used as the substrate. Each reaction mixture was heated at 100° C. for 10 minutes to stop the reaction and subjected to HPLC analysis to determine the contents of isomerized saccharide, on a dry solid basis. The contents of epilactose and lactulose in the reaction mixture obtained using lactose as substrate were determined by GC analysis described in Experiment 1-2.

[3] = 500 units/g-substrate, 10% (w/v) substrate, pH 6.0, 60° C., 72 hours
[4] = 130 units/g-substrate, 10% (w/v) substrate, pH 6.0, 60° C., 72 hours
[5] = 1 unit/g-substrate, 10% (w/v) substrate, pH 6.0, 60° C., 72 hours

Row | Compound | Action [1] | also measured
1 | CO[C@H]1O[C@H](CO)[C@@H](O)[C@H](O)[C@H]1O [Methyl-α-glucoside] | − | 
2 | OC[C@H]1O[C@H](O[C@H]2C(O)O[C@H](CO)[C@@H](O)[C@@H]2O)[C@H](O)[C@@H](O)[C@@H]1O (stereo partly drawn) [Kojibiose] | − | 
3 | OC[C@H]1O[C@H](O[C@H]2[C@H](O)[C@@H](CO)OC(O)[C@@H]2O)[C@H](O)[C@@H](O)[C@@H]1O (stereo partly drawn) [Nigerose] | − | 
4 | O=C(CO)[C@@H](O)[C@@H](O)[C@H](O)CO [D-Tagatose] | ± | Action of the enzyme on the saccharide [1]: slightly acted on; Content of isomerized saccharide in the reaction mixture (%): D-Galactose [2, 3]: 4.7%; Content of isomerized saccharide in the reaction mixture (%): D-Talose [2, 3]: 5.2%
5 | OC[C@H]1O[C@H](OC[C@H]2O[C@H](O)[C@H](O)[C@@H](O)[C@@H]2O)[C@H](O)[C@@H](O)[C@H]1O [Gentibiose] | − | 
6 | OC[C@H]1O[C@H](OC[C@H]2OC(O)(CO)[C@@H](O)[C@@H]2O)[C@H](O)[C@@H](O)[C@@H]1O (stereo partly drawn) [Palatinose] | − | 
7 | OC[C@H]1O[C@@H](O[C@H]2[C@H](O)[C@@H](O)[C@H](O[C@H]3[C@H](O)[C@@H](O)[C@H](O[C@H]4[C@H](O)[C@@H](O)C(O)O[C@@H]4CO)O[C@@H]3CO)O[C@@H]2CO)[C@H](O)[C@@H](O)[C@@H]1O (stereo partly drawn) [Cellotetraose] | ++ | Action of the enzyme on the saccharide [1]: relatively strong specificity
8 | Maltotriose | + | Action of the enzyme on the saccharide [1]: acted on; Content of isomerized saccharide in the reaction mixture (%): Epimaltotriose [2, 4]: 23.3%
9 | OC[C@H]1O[C@H](OC[C@H]2OC(O)[C@H](O)[C@@H](O)[C@@H]2O)[C@H](O)[C@@H](O)[C@@H]1O (stereo partly drawn) [Isomaltose] | − | 
10 | Maltohexaose | ± | Action of the enzyme on the saccharide [1]: slightly acted on
11 | CC(=O)N[C@H]1C(O)O[C@H](CO)[C@H](O)[C@@H]1O (stereo partly drawn) [N-Acetyl-galactosamine] | − | 
12 | OC[C@H]1O[C@H](OC[C@H]2O[C@H](OC[C@H]3OC(O)[C@H](O)[C@@H](O)[C@@H]3O)[C@H](O)[C@@H](O)[C@@H]2O)[C@H](O)[C@@H](O)[C@@H]1O (stereo partly drawn) [Isomaltotriose] | − | 
13 | OC[C@H]1O[C@H](O[C@H]2O[C@H](CO)[C@@H](O)[C@H](O)[C@H]2O[C@H]2O[C@H](CO)[C@@H](O)[C@H](O)[C@H]2O)[C@H](O)[C@@H](O)[C@@H]1O [Selaginose] | − | 
14 | OC[C@H]1O[C@@](CO)(O[C@H]2O[C@H](CO)[C@@H](O[C@H]3O[C@H](CO)[C@@H](O)[C@H](O)[C@H]3O)[C@H](O)[C@H]2O)[C@@H](O)[C@@H]1O [Erlose] | − | 
15 | O=C[C@@H](O)[C@@H](O)[C@@H](O)[C@H](O)CO [D-Talose] |  | Content of isomerized saccharide in the reaction mixture (%): D-Galactose [2, 3]: 27.2%; Content of isomerized saccharide in the reaction mixture (%): D-Tagatose [2, 3]: 17.9%
16 | OC[C@H]1O[C@H](OC[C@H]2O[C@H](O[C@H]3[C@H](O)[C@@H](O)C(O)O[C@@H]3CO)[C@H](O)[C@@H](O)[C@@H]2O)[C@H](O)[C@@H](O)[C@@H]1O (stereo partly drawn) [Panose] | − | 
17 | OC[C@@H](O)[C@@H](O[C@H]1O[C@H](CO)[C@@H](O[C@H]2O[C@H](CO)[C@@H](O)[C@H](O)[C@H]2O)[C@H](O)[C@H]1O)[C@H](O)[C@@H](O)CO [Maltotriitol] | − | 
18 | OC[C@H]1O[C@@H](O[C@H]2[C@H](O)[C@@H](O)C(O)O[C@@H]2CO)[C@H](O)[C@@H](O)[C@H]1O (stereo partly drawn) [Lactose] | ++ | Action of the enzyme on the saccharide [1]: relatively strong specificity; Content of isomerized saccharide in the reaction mixture (%): Epilactose [2, 5]: 32.0%; Content of isomerized saccharide in the reaction mixture (%): Lactulose [2, 5]: 0.0%; Content of isomerized saccharide in the reaction mixture (%): Epilactose [2, 4]: 12.8%; Content of isomerized saccharide in the reaction mixture (%): Lactulose [2, 4]: 57.5%; Action of the enzyme on the substrate [2]: relatively specifically acted
19 | OC[C@H]1O[C@H](O[C@H]2[C@H](O)[C@@H](O)[C@H](O)O[C@@H]2CO)[C@H](O)[C@@H](O)[C@@H]1O [Maltose] | + | Action of the enzyme on the saccharide [1]: acted on; Content of isomerized saccharide in the reaction mixture (%): Epimaltose [2, 4]: 22.2%; Content of isomerized saccharide in the reaction mixture (%): Maltulose [2, 4]: 7.7%
20 | Maltulose | ± | Action of the enzyme on the saccharide [1]: slightly acted on
21 | O=C[C@H](O)[C@H](O)[C@H](O)[C@H](O)CO [D-Allose] | − | 
22 | OC[C@H]1O[C@@](CO)(O[C@H]2O[C@H](CO)[C@@H](O)[C@H](O)[C@H]2O)[C@@H](O)[C@@H]1O [Sucrose] | − | 

Row | Compound | Action [1] | also measured
23 | CO[C@@H]1O[C@H](CO)[C@@H](O)[C@H](O)[C@H]1O [Methyl-β-glucoside] | − | 
24 | OC[C@H]1O[C@H](O[C@H]2[C@H](O)[C@@H](O)[C@@H](O[C@H]3[C@H](O)[C@@H](O)[C@@H](O[C@H]4[C@H](O)[C@@H](O)C(O)O[C@@H]4CO)O[C@@H]3CO)O[C@@H]2CO)[C@H](O)[C@@H](O)[C@@H]1O (stereo partly drawn) [Maltotetraose] | ± | Action of the enzyme on the saccharide [1]: slightly acted on
25 | OC[C@H]1O[C@H](O[C@H]2[C@H](O)[C@@H](O)[C@@H](OC[C@H]3OC(O)[C@H](O)[C@@H](O)[C@@H]3O)O[C@@H]2CO)[C@H](O)[C@@H](O)[C@@H]1O (stereo partly drawn) [Isopanose] | − | 
26 | O=C[C@H](O)[C@@H](O)[C@H](O)CO [D-Xylose] | − | 
27 | N[C@H]1C(O)O[C@H](CO)[C@@H](O)[C@@H]1O (stereo partly drawn) [D-Glucosamine] | − | 
28 | CC(=O)N[C@H]1C(O)O[C@H](CO)[C@@H](O)[C@@H]1O (stereo partly drawn) [N-Acetyl-glucosamine] | − | 
29 | O=C(CO)[C@@H](O)[C@H](O)[C@H](O)CO [D-Fructose] | ± | Action of the enzyme on the saccharide [1]: slightly acted on; Content of isomerized saccharide in the reaction mixture (%): D-Glucose [2, 4]: 2.2%; Content of isomerized saccharide in the reaction mixture (%): D-Mannose [2, 4]: 2.2%
30 | Isomaltosyl-glucoside | − | 
31 | O=C[C@@H](O)[C@@H](O)[C@@H](O)CO [L-Ribose] | − | 
32 | Maltopentaose | ± | Action of the enzyme on the saccharide [1]: slightly acted on
33 | OC[C@H]1O[C@@H](O[C@H]2[C@H](O)[C@@H](O)[C@H](O[C@H]3[C@H](O)[C@@H](O)C(O)O[C@@H]3CO)O[C@@H]2CO)[C@H](O)[C@@H](O)[C@@H]1O (stereo partly drawn) [Cellotriose] | ++ | Action of the enzyme on the saccharide [1]: relatively strong specificity
34 | OC[C@H]1O[C@@H](O[C@H]2O[C@H](CO)[C@@H](O)[C@H](O)[C@H]2O)[C@H](O)[C@@H](O)[C@@H]1O [Neotrehalose] | − | 
35 | OC[C@H]1O[C@H](O[C@H]2O[C@H](CO)[C@@H](O)[C@H](O)[C@H]2O)[C@H](O)[C@@H](O)[C@@H]1O [Trehalose] | − | 
36 | O=C[C@H](O)[C@@H](O)[C@H](O[C@@H]1O[C@H](CO)[C@@H](O)[C@H](O)[C@H]1O)[C@H](O)CO [Cellobiose] | ++ | Action of the enzyme on the saccharide [1]: relatively strong specificity; Content of isomerized saccharide in the reaction mixture (%): Cellobiulose [2, 5]: 1.7%; Content of isomerized saccharide in the reaction mixture (%): Epicellobiose [2, 5]: 27.8%; Content of isomerized saccharide in the reaction mixture (%): Cellobiulose [2, 4]: 53.2%; Content of isomerized saccharide in the reaction mixture (%): Epicellobiose [2, 4]: 13.4%; Action of the enzyme on the substrate [2]: relatively specifically acted
37 | O=C[C@H](O)[C@@H](O)[C@H](O)[C@H](O)C(=O)O [D-Glucuronic acid] | − | 
38 | OC[C@@H](O)[C@@H](O[C@H]1O[C@H](CO)[C@@H](O)[C@H](O)[C@H]1O)[C@H](O)[C@@H](O)CO [Maltitol] | − | 
39 | O=C(CO)[C@@H](O)[C@H](O)[C@@H](O)CO [L-Sorbose] | − | 
40 | C[C@H](O)[C@H](O)[C@@H](O)[C@@H](O)C=O [L-Rhamnose] | − | 
41 | Maltoheptaose | ± | Action of the enzyme on the saccharide [1]: slightly acted on
42 | N[C@H]1C(O)O[C@H](CO)[C@H](O)[C@@H]1O (stereo partly drawn) [D-Galactosamine] | − | 
43 | O=C[C@H](O)[C@H](O)[C@H](O)CO [D-Ribose] | − | 
44 | O=C(CO)[C@H](O)[C@H](O)[C@H](O)CO [D-Psicose] | − | 
